Data set [1] can be described thus: Cytotoxicity (CC50) determination, crystal violet assay. It is filed as cell-based. To be noted: African green monkey, Vero E6 cells, Table 4 prints no unit, Figure 4 prints μM, read-out: CC50 (half-maximal cytotoxic concentration). The method, then:
To assess the half maximal cytotoxic concentration (CC50), stock solutions of the test compounds were prepared in 10% DMSO in ddH2O and diluted further to the working solutions with DMEM. The cytotoxic activity of the extracts was tested in VERO-E6 cells by using crystal violet assay as previously described with minor modifications. Briefly, the cells were seeded in 96-well plates (100 µL/well at a density of 3 × 10^5 cells/mL) and incubated for 24 h at 37 °C in a humidified 5% CO2 incubator. After 24 h, cells were treated with various concentrations of the tested compounds in triplicates. Seventy two hours later, the supernatant was discarded, and cell monolayers were fixed with 10% formaldehyde for 1 h at room temperature (RT). The fixed monolayers were then dried and stained with 50 µL of 0.1% crystal violet for 20 min on a bench rocker at RT. The monolayers were then washed, dried and the crystal violet dye in each well was then dissolved with 200 µL of methanol for 20 min on a bench rocker at RT. The absorbance of crystal violet solutions was measured at λmax 570 nm as a reference wavelength using a multi-well plate reader.

For data set [2], the system named is SARS-CoV-2 "NRC-03-nhCoV" virus. Briefly: Inhibitory concentration 50 (IC50) determination, reduction of virus-induced cytopathic effect in Vero-E6 cells. It is filed as cell-based. To be noted: for Selectivity Index (CC50/IC50): CC50 on Vero E6 / IC50 against NRC-03-nhCoV; for IC50: Severe acute respiratory syndrome coronavirus 2, Vero C1008, 72 h, unit not given in Table 4 and Figure 6, Figure 4 and text print μM. The method, then:
The IC50 values for the tested compounds were determined as previously described, with minor modifications. Briefly, in 96-well tissue culture plates, 2.4 × 10^4 Vero-E6 cells were distributed in each well and incubated overnight at a humidified 37°C incubator under 5% CO2 condition. The cell monolayers were then washed once with 1× PBS. An aliquot of the SARS-CoV-2 “NRC-03-nhCoV” virus containing 100 TCID50 was incubated with serial diluted compounds and kept at 37 °C for 1 h. The Vero-E6 cells were treated with virus/compound mix and co-incubated at 37 °C in a total volume of 200 µL per well. Untreated cells infected with virus represented the virus control; however, cells that were not treated and not infected were the cell control. Following incubation at 37 °C in 5% CO2 incubator for 72 h, the cells were fixed with 100 μL of 10% paraformaldehyde for 20 min and stained with 0.5% crystal violet in distilled water for 15 min at RT. The crystal violet dye was then dissolved using 100 μL of absolute methanol per well and the optical density of the color was measured at 570 nm using the Anthos Zenyth 200 rt plate reader (Anthos Labtec Instruments, Heerhugowaard, the Netherlands).
Background: Protection from cytopathic effect is a common read-out in antiviral testing.

Where [3] appears, read: against NRC-03-nhCoV in Vero E6, 72 h, CPE reduction, crystal violet, read-out: IC50 (half-maximal inhibitory concentration).

Read-outs that look alike come from different tables or passages of the source.

Turning to `CC1(C)CC[C@]2(C(=O)O)CC[C@]3(C)C(=CC[C@@H]4[C@@]5(C)CC[C@H](O)C(C)(C)[C@@H]5CC[C@]43C)[C@@H]2C1` [Compound 1, Oleanolic acid], the CC50 at 72 h in data set [1] turned out to be 190 µM. Besides, in data set [2], the “Selectivity Index (CC50/IC50)” value was 0.39. In addition, the IC50 in data set [2] (setting [3]) was found to be 476 µM.
On the same counts, the results for `CC1(C)CC[C@]2(C(=O)O)CC[C@]3(C)C(=CC[C@@H]4[C@@]5(C)C[C@@H](O)[C@H](O)C(C)(C)[C@@H]5CC[C@]43C)[C@@H]2C1` [Compound 2, Maslinic acid] are 97.3 µM, 0.97 and 99.9 µM.
On the same counts, the results for `C#CCOC(=O)[C@]12CCC(C)(C)CC1C1=CCC3[C@@]4(C)CC[C@H](O)C(C)(C)C4CC[C@@]3(C)[C@]1(C)CC2` (stereo partly drawn) [Compound 3, Propargyl-(3β)-3-hydroxyolean-12-en-28-oate] are 97.4 µM, 2.32 and 42 µM.
The corresponding values for `C#CCOC(=O)[C@]12CCC(C)(C)CC1C1=CCC3[C@@]4(C)C[C@@H](O)[C@H](O)C(C)(C)C4CC[C@@]3(C)[C@]1(C)CC2` (stereo partly drawn) [Compound 4, Propargyl-(2α,3β)-2,3-dihydroxyolean-12-en-28-oate] are 157 µM, 0.67 and 236 µM.
With `C#CCOC(=O)C12CCC(C)(C)CC1C1=CCC3C4(C)CC(OCC#C)C(O)C(C)(C)C4CCC3(C)C1(C)CC2` (stereo not drawn) [Compound 5, Propargyl-(2α)-2-(propargyloxy)-(3β)-3-hydroxy-olean-12-en-28-oate], in data set [1], the CC50 at 72 h came out at 90.6 µM. The “Selectivity Index (CC50/IC50)” value in data set [2] amounted to 1.06. Further, the IC50 in data set [2] (setting [3]) amounted to 85.2 µM.
On the same counts, the results for `C#CCOC(=O)C12CCC(C)(C)CC1C1=CCC3C4(C)CC(O)C(OCC#C)C(C)(C)C4CCC3(C)C1(C)CC2` (stereo not drawn) [Compound 6, Propargyl-(3α)-3-(propargyloxy)-(2β)-2-hydroxy-olean-12-en-28-oate] are 209 µM, 1.55 and 135 µM.
The corresponding values for `C#CCOC(=O)C12CCC(C)(C)CC1C1=CCC3C4(C)CC(OCC#C)C(OCC#C)C(C)(C)C4CCC3(C)C1(C)CC2` (stereo not drawn) [Compound 7, Propargyl-(2α,3β)-2,3-bis(propargyloxy)-olean-12-en-28-oate] are 97.4 µM, 0.90 and 108 µM.
On the same counts, the results for `Cc1cccc(-n2nncc2COC(=O)C23CCC(C)(C)CC2C2=CCC4C5(C)CCC(O)C(C)(C)C5CCC4(C)C2(C)CC3)c1` (stereo not drawn) [Compound 8, (1-(3-methylphenyl)-1H-1,2,3-triazol-5-yl)methyl-(3β)-3-hydroxyolean-12-en-28-oate] are 170 µM, 0.98 and 174 µM.
Regarding `Cc1cccc(-n2cc(COC(=O)C34CCC(C)(C)CC3C3=CCC5C6(C)CCC(O)C(C)(C)C6CCC5(C)C3(C)CC4)nn2)c1` (stereo not drawn) [Compound 10, (1-(3-methylphenyl)-1H-1,2,3-triazol-4-yl)methyl-(3β)-3-hydroxyolean-12-en-28-oate], in data set [1], the CC50 at 72 h was 277 µM. Further, the “Selectivity Index (CC50/IC50)” value in data set [2] is 3.68. Further, the IC50 in data set [2] (setting [3]) is 75.3 µM.
Take `CC1(C)CCC2(C(=O)OCc3cn(-c4ccccc4)nn3)CCC3(C)C(=CCC4C5(C)CC(O)C(O)C(C)(C)C5CCC43C)C2C1` (stereo not drawn) [Compound 11, (1-Phenyl-1H-1,2,3-triazol-4-yl)methyl-(2α,3β)-2,3-dihydroxyolean-12-en-28-oate]: the CC50 at 72 h in data set [1] is 218 µM. Besides, the “Selectivity Index (CC50/IC50)” value in data set [2] stood at 1.62. The IC50 in data set [2] (setting [3]) worked out at 135 µM.
Regarding `CC1(C)CC[C@]2(C(=O)OCc3cn(-c4ccc(Cl)cc4)nn3)CC[C@]3(C)C(=CCC4[C@@]5(C)C[C@@H](OCc6cn(-c7ccc(Cl)cc7)nn6)[C@H](O)C(C)(C)C5CC[C@]43C)C2C1` (stereo partly drawn) [Compound 12, (1-(4-Chlorophenyl)-1H-1,2,3-triazol-4-yl)methyl-(2α,3β)-2-((1-(4-chlorophenyl)-1H-1,2,3-triazol-4-yl)methoxy)-3-hydroxyolean-12-en-28-oate], the CC50 at 72 h in data set [1] is 514 µM. Besides, the “Selectivity Index (CC50/IC50)” value in data set [2] is listed as 4.42.
The corresponding values for `COc1ccc(-n2cc(COC(=O)[C@]34CCC(C)(C)CC3C3=CCC5[C@@]6(C)C[C@@H](O)[C@H](OCc7cn(-c8ccc(OC)cc8)nn7)C(C)(C)C6CC[C@@]5(C)[C@]3(C)CC4)nn2)cc1` (stereo partly drawn) [Compound 13, (1-(4-Methoxyphenyl)-1H-1,2,3-triazol-4-yl)methyl-(2α,3β)-2-hydroxy-3-((1-(4-methoxyphenyl)-1H-1,2,3-triazol-4-yl)methoxy)-olean-12-en-28-oate] are 356 µM and 2.24.
Turning to `COc1ccc(-n2cc(COC(=O)[C@]34CCC(C)(C)CC3C3=CCC5[C@@]6(C)C[C@@H](OCc7cn(-c8ccc(OC)cc8)nn7)[C@H](OCc7cn(-c8ccc(OC)cc8)nn7)C(C)(C)C6CC[C@@]5(C)[C@]3(C)CC4)nn2)cc1` (stereo partly drawn) [Compound 14, (1-(4-Methoxyphenyl)-1H-1,2,3-triazol-4-yl)methyl-(2α,3β)-2,3-bis((1-(4-methoxyphenyl)-1H-1,2,3-triazol-4-yl)methoxy)-olean-12-en-28-oate], the CC50 at 72 h in data set [1] came to 405 µM. In data set [2], the “Selectivity Index (CC50/IC50)” value came to 2.96.
Regarding `COc1ccc(-c2cc(COC(=O)C34CCC(C)(C)CC3C3=CCC5C6(C)CCC(O)C(C)(C)C6CCC5(C)C3(C)CC4)on2)cc1` (stereo not drawn) [Compound 15, (3-(4-methoxyphenyl)isoxazol-5-yl) methyl-(3β)-3-hydroxyolean-12-en-28-oate], the IC50 in data set [2] (setting [3]) turned out to be 523 µM.
On to `COc1ccc(-c2cc(COC(=O)C34CCC(C)(C)CC3C3=CCC5C6(C)CC(O)C(O)C(C)(C)C6CCC5(C)C3(C)CC4)on2)cc1` (stereo not drawn) [Compound 16, (3-(4-methoxyphenyl)isoxazol-5-yl) methyl-(2α,3β)-2,3-dihydroxyolean-12-en-28-oate], for which the CC50 at 72 h in data set [1] turned out to be 324 µM. Also, the “Selectivity Index (CC50/IC50)” value in data set [2] stood at 1.48. For the same compound, the IC50 in data set [2] (read-out: IC50 (half-maximal inhibitory concentration), against NRC-03-nhCoV in Vero E6, 72 h, CPE reduction, crystal violet) is 219 µM.

Values taken from article PMC8159111 (Pathogens, 2021).
